According to patent publication US12584105B2, “Autologous cell replacement therapy for Parkinson's disease” (The McLean Hospital Corporation, priority 2019, dated 2026):

Key:
[1] = test system: voltage-gated Na+ channels; type: cell-based, human
[2] = test system: undifferentiated C4 cells (human iPSCs); assay: Quercetin treatment of undifferentiated hiPSCs (Trypan blue, hemocytometer); type: cell-based
Description: To test the effect of Quercetin on human iPSC removal, human iPSCs were plated on 6 well plates. Cells were treated with each concentration of Quercetin (5, 10, 20, 40, and 100 μM) for 2, 6, 16, and 24 hours. After each time point, Quercetin containing medium was replaced with fresh medium and cells cultured for 48 hours from the initial Quercetin treatment time. Cells were dissociated using TrypLE and cell viability was measured using Trypan blue exclusion and hemocytometer.
The most critical issue for hPSC-based cell therapy is to establish safety by removing residual undifferentiated cells with neoplastic potential. Based on the previous finding that BIRC5 (encoding survivin) is highly expressed in hPSCs compared to somatic cells (40), we hypothesized that chemical inhibition of survivin would selectively eliminate remaining undifferentiated hiPSCs. However, since survivin is known to be important for neuronal precursors (41, 42), it is important to test whether this strategy interferes with mDAP generation. Among survivin inhibitors (40), we chose the flavonoid quercetin (3,3′,4′,5,7-pentahydroxyflavone) because this natural compound is present at high concentration in commonly consumed vegetables and fruits (43). We first treated 100,000 undifferentiated C4 cells with 5, 10, 20, 40, and 100 μM quercetin for 2, 6, 16, and 24 hours. […]

[3] = test system: D9 C4 cells (mostly neuronal precursors); assay: Quercetin treatment of D9 differentiating cells, outcome on D11; type: cell-based, human; conditions: different concentrations (5-100 μM) for 16 hours on D9
Text: The most critical issue for hPSC-based cell therapy is to establish safety by removing residual undifferentiated cells with neoplastic potential. Based on the previous finding that BIRC5 (encoding survivin) is highly expressed in hPSCs compared to somatic cells (40), we hypothesized that chemical inhibition of survivin would selectively eliminate remaining undifferentiated hiPSCs. However, since survivin is known to be important for neuronal precursors (41, 42), it is important to test whether this strategy interferes with mDAP generation. Among survivin inhibitors (40), we chose the flavonoid quercetin (3,3′,4′,5,7-pentahydroxyflavone) because this natural compound is present at high concentration in commonly consumed vegetables and fruits (43). We first treated 100,000 undifferentiated C4 cells with 5, 10, 20, 40, and 100 μM quercetin for 2, 6, 16, and 24 hours. After washing with fresh media, cells were further cultured for a total of 48 hours. […] To test whether quercetin affects survival of mDAPs, we treated D9 C4 cells (mostly neuronal precursors) with different concentrations of quercetin for 16 hours and examined outcome on D11.

[4] = test system: undifferentiated C4 cells; assay: Colony forming assay (AP staining) of C4 cells diluted among hDFs; type: cell-based, human
Description: (§1) For colony forming assay, each cell dilution was cultured for 6 days in E8 medium and pluripotent colonies were identified by AP staining. For the quercetin removal of undifferentiated cells, cells were treated with 40 μM quercetin for 16 hours and cultured in fresh E8 medium. For fluorescence activated cell sorting (FACS), C4 cells were dissociated using TrypLE and filtered through a 70 μm cell strainer. Single cell suspensions were first fixed with 4% formaldehyde for 10 mins and suspended in permeabilization buffer for 15 min on ice. After blocking for 30 min, cells were incubated with primary labeled antibodies (PE conjugated anti SSEA-4, TRA-1-60) for 1 hour on ice in the dark. After washing with PBS with 1% FBS, FACS analysis was performed using a BD Accuri C6 system (BD Bioscience) and data analyses were carried out according to manufacturer's instructions. Fluorochrome matched isotype controls were used and subtracted during analysis. For qRT-PCR assay, total RNA from all dilutions was extracted and subjected to qRT-PCR to determine OCT4 cycle times (Ct) value. OCT4 copy numbers were calculated from the equation curve that was generated from qRT-PCR of purified OCT4 partial sequence. Then, OCT4 copy numbers were plotted against PSC numbers.

[5] = test system: undifferentiated C4 cells; assay: OCT4 qRT-PCR assay for undifferentiated cells; type: cell-based, human; conditions: D14, D21 and D28 after quercetin treatment (40 μM at D9 for 16 hours)
Description: as §1

[6] = test system: NANOG+ undifferentiated cells; assay: NANOG immunostaining of D14 cells; type: cell-based, human; conditions: D14, with quercetin treatment
Description: hiPSC derived dopaminergic neurons were washed with phosphate-buffered saline (PBS) (with Ca^2+ and Mg^2+) and fixed with 4% formaldehyde in PBS (pH 7.4) for 10 mins. Cells were incubated for 1 hr in blocking solution (0.3% Triton X-100 and 1% horse serum in PBS) at room temperature. Cells were incubated with primary antibodies in PBS containing 0.3% Triton X-100 and 1% horse serum overnight. Cells were then incubated with the proper fluorescence-conjugated secondary antibodies with Hoechst 33342 for nuclei staining at room temperature for 1 hr. Cell images were obtained by confocal microscopy (KEYENCE, Osaka, Japan). Data regarding specific cell populations were determined from microscopic images using ImageJ software (11). To measure apoptotic cells, cells were stained for cleaved caspase 3, an apoptotic marker, and Hoechst 33342, a DNA-binding nuclear dye. After staining with Hoechst 33342, compacted chromatin is brighter than in normal cells, and the condensed nuclei were counted by fluorescence microscopy. Data regarding specific cell populations were determined from microscopic images by ImageJ software.

undifferentiated iPSCs = assay: Residual undifferentiated iPSCs in final cell product (immunostaining and real-time PCR); type: cell-based, human; conditions: final cell products at day 28 after quercetin
Text: After treatment with quercetin, the final cell products (at day 28) had no detectable remaining undifferentiated iPSCs (with an upper boundary of the 95% confidence interval of <1 undifferentiated cell per 1 billion day-28 differentiated cells), on the basis of immunostaining and real-time polymerase chain reaction-based assays. Serotonergic neurons, a potential cause of graft-induced dyskinesia (Olanow et al. Ann Neurol 2003; 54:403-14), were not detected in the final product.

Row | SMILES | transient inward currents evoked by voltage pulses from −70 mV to +40 mV [1] | efficiency of elimination of undifferentiated hiPSCs [2] [%] | viable cells ([2]; 100,000 undifferentiated C4 cells, >20 μM quercetin for >16 hours, cultured for a total of 48 hours) | cell viability and cell number at D11 [3] | AP+ colonies ([4]; 40 μM quercetin for 16 hours, up to 10^5 hiPSCs plated, 6 days culture) | efficacy of quercetin treatment ([4]; colony forming assay) [%] | calculated number of undifferentiated cells [5] | NANOG+ cells [6] | remaining undifferentiated iPSCs, upper boundary of the 95% confidence interval (undifferentiated iPSCs)
1 | NC1=N[C@H](O)[C@H]2[C@H]3O[C@]4(O)O[C@@H]([C@@H](O)[C@@]2(N1)[C@@H]4O)[C@]3(O)CO [TTX, tetrodotoxin] | completely blocked | – | – | – | – | – | – | – | –
2 | O=c1c(O)c(-c2ccc(O)c(O)c2)oc2cc(O)cc(O)c12 [quercetin, 3,3′,4′,5,7-pentahydroxyflavone] | – | > 99.99 | undetectable | Neither cell viability nor number was affected | no AP′ colonies detected | > 99.99 | less than 1 cell per 100,000 cells | none were detected | < 1 undifferentiated cell per 1 billion day-28 differentiated cells
